We go through three compounds from patent US9481743B2, “Polyelectrolyte polymers, their manufacture and use” (priority 2013, dated 2016).

The nature of data set [1]: Solubility/miscibility tests. Type of data set: physicochemical. As to the method:
Approximately 5-10 mg of compound was added to a test tube followed by the addition of 1.5 mL of solvent followed by 5 seconds of gentle stirring. If dissolution was not observed immediately, the mixture was further stirred and sonicated for 30 seconds. Material was deemed soluble if the resulting solution was free of particulate and haze, determined by visual inspection. […] If solutions remained hazy, they were referred to as emulsion mixtures.

Data set [2] in a line: Thermal degradation by thermal gravimetric analysis (TGA). Type of data set: physicochemical. As to conditions: 10° C./min, nitrogen. As to the method:
Nuclear Magnetic Resonance (NMR) spectroscopy was conducted on a Varian INOVA 400 MHz spectrometer (^1H, 400.09 MHz, ^31P{^1H} 161.82 MHz, ^19F, 376.15 MHz). All ^1H spectra were referenced relative to tetramethyl silane (CDCl3; ^1H δH=7.26 ppm and CO(CD3)2; ^1H δH=2.04). The chemical shifts for ^31P{H} NMR spectroscopy were referenced using an external standard (85% H3PO4; δP=0). The chemical shifts for ^19F{^1H} NMR spectroscopy were also referenced using an external standard (trifluorotoluene; δF=−63.9 ppm). Infrared spectra were recorded using a Bruker Tensor 27 spectrometer using attenuated total reflectance mode (ATR) using a ZnSe crystal. […] Water contact angles (WCA) were measured using a Kruss DSA100 Drop Shape Analyzer and analyzed using Drop Shape Analysis. Thermal degradation was determined using Thermal Gravimetric Analysis (TGA) on a Q600 SDT TA instrument. […] Glass transition temperatures were determined using Differential Scanning calorimetry (DSC) on a DSC Q20 TA instrument. […] Melting points of all HFPS were determined using a Gallenkamp Variable Heater in air. Mass spectrometry was recorded in both positive and negative ion modes using electrospray ionization (ESI) Micromass LCT spectrometer. […] The positive or negative secondary ions were extracted from the sample surface, mass separated and detected via a reflectron-type time-of-flight analyser. […]

Data set [3] can be described thus: Slow heating within a mass spectrometer, perfluoro-tert-butanol fragment m/z 197 monitored. As to conditions: heated slowly within a mass spectrometer. The data set is classed as physicochemical. An excerpt: Compound [3b]Cl was heated slowly within a mass spectrometer and the fragments of perfluoro-tert-butanol was monitored.
The conditions of data set [4]: of the protonated form; cited from earlier work.
Data set [5] in a line: Density of surface phosphonium cations by UV-vis (fluorescein dye). The data set is classed as physicochemical. The protocol: Characterization by FTIR-ATR spectroscopy confirmed the conversion of acrylate functionality post polymerization. Percent cure was determined using a literature procedure. The intensity of the acrylate vibration at 810 cm^−1 was compared to the C═O vibration at 1750 cm^−1 both before and after irradiation. […] The density of surface phosphonium cations was determined by UV-vis spectroscopy as described in a literature procedure.
Characterization by FTIR-ATR spectroscopy confirmed the conversion of acrylate functionality post polymerization. […] The density of surface phosphonium cations was determined by UV-vis spectroscopy as described in a literature procedure^23. […] This assumes a 1:1 ratio of positive and negative charge on the surface.
Before deposition of [Au25L18]^−, the number of accessible charges on the PPF was quantified. A known protocol utilizing fluorescein dye was employed to determine the value for the above system and to relate this quantity back to the percentage of phosphonium monomers that were included in the original formulation.^23 This procedure is commonly used as a characterization technique for films containing surface-bound quaternary salts. […] At 30 wt %, a dramatic increase in the number of quaternary charges was observed (1.5×10^15 cations/cm^2). Increasing the salt content to 37.5 and 47.5 wt % yielded surfaces with 8.2×10^15 and 1.4×10^16 cations/cm^2, respectively. […] Use of low melting phosphonium salts permits formation of a formulation having low viscosity despite the high ion content, allowing for ease of handling and deposition. Use of high melting point organic salts in a similar fashion generates formulations with relatively high viscosities or significant solubility issues, which manifest themselves in poor films. Advantages of the phosphonium-based acrylate monomer in the fabrication of the charged surfaces can thus be seen.

Data set [6] has as its system S. Aureus. The data set can be described thus: Antibacterial drop-test of UV-cured films. The data set is classed as cell-based. As to the method:
(§1) A desired amount of 2-hydrox-2-methy-1-phenyl-propanone (5 wt %), diacrylate crosslinker (EB 130, a cyclic aliphatic diacrylate) and the acrylate-appended phosphonium salt were weighed and combined in screw top vials. The mixture was then insonated at 45° C. for 20 min until the solutions were free of particulate and haze. After cooling to room temperature, the solutions were cast on polyester films and irradiated with UV light three times. Leached films were treated with H2O (Milli-Q) in a wrist action shaker for 4 hours, followed by washing with H2O (2×10 mL) and air drying. Both leached and unleached films were subjected to the antibacterial test (below).
(§2) The antibacterial activities of the charged surfaces against Gram-negative bacteria Escherichia coli […] were studied using the antibacterial drop-test. E. coli precultured in 15 mL of nutrient broth (Difco™ BD) at 37° C. for 24 h, was washed by centrifuging at 4000 rpm for 10 min. After removing the supernatant, the cells were washed with phosphate buffered saline (PBS) twice and re-suspended and diluted to approximately 10^6 colony forming units (CFU)/mL in PBS solution. The samples were placed in sterilized Petri dishes. 100 μL of PBS solution with bacteria was added dropwise onto sterilized surfaces until completely covered. The petri dishes were sealed and placed in an incubator at 37° C. with the humidity 46%. After 4 hr, the bacteria were washed from the surface of the sample by using 10 mL PBS in the sterilized Petri dish. From this solution, 100 μL was spread onto solid plate count agar (Difco™ BD). After incubation for 24 h at 37° C., the number of surviving bacterial colonies on the Petri dishes were counted. The results after multiplication with the dilution factor were expressed as CFU per mL. The above experiments were carried out in triplicate for each sample. The percentage of killed bacteria was calculated as [(CFU of initial bacterial suspension−CFUs following surface contact)/CFU of initial bacterial suspension]×100.

Data set [7] concerns Escherichia coli. In words: Antibacterial drop-test of UV-cured films. Type of data set: cell-based. As to the method: as §1, §2

SMILES strings stand for the structures. Several values for one entry are separate records, joined by “and”; a condition that tells them apart may be missing. Equal entries are not always repeated.

For `C=Cc1ccc(C[P+](CCCOC(C(F)(F)F)(C(F)(F)F)C(F)(F)F)(CCCOC(C(F)(F)F)(C(F)(F)F)C(F)(F)F)CCCOC(C(F)(F)F)(C(F)(F)F)C(F)(F)F)cc1.[Cl-]` [[3b]Cl], the figures for the “Solubility (in words)” value in data set [1] (chloroform), in data set [1] (dichloromethane) and in data set [1] (most solvents including diethyl ether) were “soluble”, “soluble” and “high solubility”, respectively. The “Decomposition Point” value in data set [2] was 198 °C and 197* ° C. Further, the “Time at which signal at m/z=197 was at a maximum” value in data set [3] turned out to be 889 s. Besides, in data set [3], the “Time until fragment at m/z=197 was observed” value worked out at 532 s.
What is called pKa is the negative logarithm of the acid dissociation constant. Turning to `OC(C(F)(F)F)(C(F)(F)F)C(F)(F)F` [perfluoro-tert-butoxide], in data set [4], the pKa is listed as 5.2.
For `C=CC(=O)OCCC[P+](CCCC)(CCCC)CCCC.[Br-]` [[4]Br, (3-(acryloyloxy)propyl)tributylphosphonium bromide], the Charge/Unit area is on record as 0 ×10^x Y^+/cm^2 in data set [5] (25% [4]Br film), 1.47 × 10^15 ×10^x Y^+/cm^2 in data set [5] (30% [4]Br film), 8.18 × 10^15 ×10^x Y^+/cm^2 in data set [5] (37.5% [4]Br film) and 1.42 × 10^16 ×10^x Y^+/cm^2 in data set [5] (47.5% [4]Br film). Also, the “% S. Aureus killed (unleached)” value in data set [6] (30% [4]Br in EB 130 film) and in data set [6] (47.5% [4]Br in EB 130 film) was 100 ± 2% each time. Moreover, in data set [6] (47.5% [4]Br in EB 130 film, leached), the “% S. Aureus killed (leached)” value is recorded as 100 ± 2%. Moreover, the “% E. coli killed (unleached)” value in data set [7] (25% [4]Br in EB 130 film) is given as “No”; in data set [7] (30% [4]Br in EB 130 film) it was 30 ± 5%; in data set [7] (37.5% [4]Br in EB 130 film), 46 ± 7%; in data set [7] (47.5% [4]Br in EB 130 film) it was 82 ± 9%.
